Here are results for three compounds from patent publication US20120040904A1, “Boronate Medicaments for Preventing Thrombosis During Surgery” (Trigen Holdings AG, priority 2004, published 2012).

Marks after values point to notes of the source that are not given here.

Series [1] can be described thus: Comparative storage stability of sodium and calcium salts (Example 42). The class given is physicochemical. The following applies: for Tri50c (w/w %, LOD corr.): corrected for loss on drying. The text has this: In both studies the active pharmaceutical ingredient was stored in grip sealed double bags within a PE/PP screw cap closed cylinder.
Series [2] in a line: Maximum solution concentration with and without pH control. The class given is physicochemical.
In the next series the test system is beagle dogs. As to the kind of experiment: Intravenous administration in beagle dogs, PK/PD (thrombin time, APTT). The class given is in vivo. The conditions noted are these: 1.0 mg/kg i.v. The protocol: Plasma concentrations were measured using an LCMS/MS method.
Blood samples were taken into 3.8% tri-sodium citrate (1+8) at pre dose, 2, 5, 10, 20, 30, minutes post dose and then at 1, 2, 3, 4, 6, 8, 12 and 24 hours post dose. Plasma was prepared by centrifugation and frozen at minus 20° C. pending analysis.

The subject of a further series is healthy male subjects. Nature of the series: Intravenous administration into humans (randomised double blind placebo study). The class given is in vivo. The conditions noted are these: intravenous infusion. The protocol: The test consisted of three groups, each of six males. From each group 5 men were given the active ingredient and 1 was given a placebo.
Total I.V. administered doses were: • 82 mg (7 mg intravenous bolus (over 30 s) followed by an infusion of 25 mg/h for 3 hours). • 130 mg (10 mg intravenous bolus (over 30 s) followed by an infusion of 40 mg/h for 3 hours). • 120 mg (by infusion of 40 mg/h for 3 hours).

Series [3] relates to dogs undergoing hypothermic CPB. Nature of the series: Simulated mitral valve repair in dogs undergoing hypothermic CPB. The conditions noted are these: intravenous, dogs on CPB. The series is classed as in vivo, beagle dogs. The protocol: Following a dose ranging study in conscious dogs, six beagle dogs were placed on CPB and underwent a simulated mitral valve repair. A range of dynamic coagulation markers were measured, including thrombin clotting time (TT), activated partial thromboplastin time (APTT), activated clotting time (ACT), ecarin clotting time (ECT), whole blood thrombin clotting time, platelet counts and function tests. In addition, pre and post-operative echocardiograms and intra-operative blood loss were evaluated. […] By virtue of its predictable anticoagulant efficacy and controlled duration of action, TGN 255 offers potential in on pump and off pump coronary bypass procedures.

The nature of series [4]: Stability: HPLC assay before and after drying over phosphorus pentoxide for 1 week. The series is classed as physicochemical. The conditions noted are these: dry. As to the method: An assay of TRI 50c and its sodium and lysine salts before and after drying.
For sample analysis, 5 mg of dried and non-dried material was weighed in a 5 mL volumetric flask and dissolved in 1 mL acetonitrile and filled up with demineralised water to 5 mL.
The quantitative evaluation was performed using an HPLC-PDA method.

As to `COCCC[C@H](NC(=O)[C@@H]1CCCN1C(=O)[C@@H](Cc1ccccc1)NC(=O)OCc1ccccc1)B([O-])O.COCCC[C@H](NC(=O)[C@@H]1CCCN1C(=O)[C@@H](Cc1ccccc1)NC(=O)OCc1ccccc1)B([O-])O.[Ca+2]` [TRI 50c calcium salt], the “Tri50c (w/w %, LOD corr.)” value is reported as “(99.7) w/w %” in series [1] (T = 0); “(101.5) w/w %” in series [1] (T = 1, 25° C./60% r.h.); “(100.6) w/w %” in series [1] (T = 1, 40° C./75% r.h.); “(102.7)^x w/w %” in series [1] (T = 1, −20° C.); “(104.3) w/w %” in series [1] (T = 3, 25° C./60% r.h.); “(82.0) w/w %” in series [1] (T = 3, 40° C./75% r.h.). Besides, in series [1] (T = 3, −20° C.), the “Tri50c (w/w %, LOD corr.)” value is “(103.0)^x w/w %”. Further, the “TRI 50c (w/w)” value in series [1] (T = 12 25° C./60% r.h.) was 94.8 w/w.
Consider `COCCC[C@H](NC(=O)[C@@H]1CCCN1C(=O)[C@@H](Cc1ccccc1)NC(=O)OCc1ccccc1)B(O)O.[Na+]` [TRI 50c sodium salt, Cbz-(R)-Phe-(S)-Pro-(R)-Mpg-B(OH)2 monosodium salt], for which the Maximum concentration result in series [2] (control solution, about pH 7) is “about 20 mg/ml”. In addition, the “Concentration of solution obtainable” value in series [2] (pH of about 9.5, pH not controlled) was “about 600 mg/ml”. In addition, the APTT elevation with beagle dogs was 1.3 times. Besides, the “Effect on thrombin time (TT)” value in the series with healthy male subjects is given as “rapid, dose-related increase”. Besides, in series [3], the “Anticoagulation during bypass and surgery” value was “excellent anticoagulation”; the “Bleeding during bypass and surgery” value was “little bleeding”.
Consider `COCCC[C@H](NC(=O)[C@@H]1CCCN1C(=O)[C@@H](Cc1ccccc1)NC(=O)OCc1ccccc1)B(O)O` [TRI 50c, Cbz-(R)-Phe-(S)-Pro-(R)-boroMpg-OH], for which the Amount in series [4] came to 1000.0 µg/mL.
